Counter-ions that a name gives are not always drawn. Like-named read-outs stand apart in the source and are kept apart here.
Assays:
[1] = tested on: cell cycle; test: Cell cycle arrest; assay type: cell-based
[2] = target: Cdk6 (Homo sapiens, UniProt Q00534); test: Cdk6 inhibition; assay type: biochemical
From the text: (§1) Further inhibition results for subject compounds of the invention against other CDKs and further kinases are shown in Table 5, Table II and described in Example 6.
(§2) Table 3, Table 4, Table 5 and Table II show the results obtained for inhibition of a broad range of such kinases for subject compounds of the invention.

[3] = target: Cdk2 (Homo sapiens, UniProt P24941); test: Cdk2 inhibition; assay type: biochemical
From the text: as §1, §2

[4] = target: panel of Ser/Thr kinases; test: Kinase panel, Ser/Thr kinases (average); assay type: biochemical; conditions: average over panel; for IC50: read-out: average IC50 among non-CDK Ser/Thr kinases
[5] = target: T1, Rsk3 (Homo sapiens, UniProt Q15349); test: Rsk3 kinase assay; assay type: biochemical
T1 construct: purchased Upstate 14-462
Method: • 1. 2.5× Reaction Buffer: 20 mM MOPS, pH 7.0, 1 mM EGTA. • 2. Enzyme Dilution Buffer (EDB): 20 mM MOPS, pH 7.0, 1 mM EDTA, 0.01% Brij-35, 5% glycerol, 0.1% β-mercaptoethanol, 1 mg/ml BSA. • 3. RSK3, active: Dilute to 4-40 ng/μl with EDB. Use 2.5 μl per assay point. • 4. MAPKAP Kinase 2 substrate peptide (Catalog #12-240): Prepare a 2.5 mM stock. Use 2.5 μl per assay point for a final concentration of 250 μM per assay. • 5. Magnesium/ATP Cocktail (Catalog #20-113): 75 mM MgCl2 and 500 μM ATP in 20 mM MOPS, pH 7.2, 25 mM β-glycerol phosphate, 5 mM EGTA, 1 mM sodium orthovanadate, 1 mM dithiothreitol. • 6. [γ-^32P]ATP: Stock 1 mCi/100 μl (3000 Ci/mmol, obtained from PerkinElmer, Catalog #BLU002A). Make 10 μl aliquots (100 μCi/vial). Before starting the assay, dilute the Magnesium/ATP Cocktail 1:1 with sterile, distilled water. Then dilute an aliquot of [γ-^32P]ATP to 1 μCi/μl with 90 μl of the diluted Magnesium/ATP Cocktail. […]
• 1. Add 10 μl of 2.5× Reaction Buffer per assay. • 2. Add 2.5 μl of MAPKAP Kinase 2 substrate peptide. • 3. Add 2.5 μl of RSK3, active (10-100 ng). • 4. Add 10 μl of the diluted [γ^32P]ATP mixture. • 5. Incubate for 10 minutes at 30° C. • 6. Transfer a 20 μl aliquot onto the center of a 2 cm×2 cm P81 paper. • 7. Wash the assay squares three times for 5 minutes with 0.75% phosphoric acid. • 8. Wash the assay squares once for 5 minutes with acetone. • 9. Transfer the assay squares to vial and add 5 ml scintillation cocktail. • 10. Read in scintillation counter. Compare cpm of enzyme samples to cpm of control samples that contain background control.

[6] = target: T2, Fes (Homo sapiens, UniProt P07332); test: Fes kinase assay; assay type: biochemical
T2 construct: purchased Upstate 14-473
Method: • 1. 2.5× Reaction Buffer: 50 mM MOPS, pH 7.0, 2.5 mM EDTA. • 2. Poly(Glu4-Tyr) (4:1): Prepare a 1 mg/ml stock in sterile distilled water. Add 2.5 μl per assay point for a final concentration of 0.1 mg/ml. • 3. Enzyme Dilution Buffer (EDB): 20 mM MOPS, pH 7.0, 1 mM EDTA, 5% glycerol, 0.01% Brij-35, 0.1% β-mercaptoethanol, 1 mg/ml BSA. • 4. Fes/Fps, active: Dilute to 4-40 ng/μl with EDB. Use 2.5 μl per assay. • 5. Magnesium/ATP Cocktail (Catalog #20-113): 75 mM MgCl2 and 500 μM ATP in 20 mM MOPS, pH 7.2, 25 mM β-glycerol phosphate, 5 mM EGTA, 1 mM sodium orthovanadate, 1 mM dithiothreitol. • 6. [γ-^32P]ATP: Stock 1 mCi/100 μl (3000 Ci/mmol, obtained from PerkinElmer, Catalog #LU002A). Make 10 μl aliquots (100 μCi/vial). Before starting the assay, dilute the Magnesium/ATP Cocktail 1:1 with sterile, distilled water. Then dilute an aliquot of [γ-^32P]ATP to 1 μCi/μl with 90 μl of the diluted Magnesium/ATP Cocktail. Use 10 μl per assay point for a final ATP concentration of 100 μM per assay point.
• 1. Add 10 μl of 2.5× Reaction Buffer per assay. • 3. Add 2.5 μl of Fes/Fps, active (10-100 ng). • 4. Add 10 μl of the diluted [γ-^32P]ATP mixture. • 5. Incubate for 10 minutes at 30° C. • 6. Spot 20 μl onto the center of a 2 cm×2 cm […]. • 7. Wash the assay squares three times for 5 minutes with 0.75% phosphoric acid. • 8. Wash the assay squares once for 5 minutes with acetone. • 9. Transfer the assay squares to vials and add 5 ml scintillation cocktail. • 10. Read in scintillation counter. Compare cpm of enzyme samples to cpm of control samples.

[7] = read-out: RPS6KA2 Inhibition (IC50)
[8] = read-out: FES Inhibition (IC50)

T1 sequence (Q15349 whole entry, species assumed): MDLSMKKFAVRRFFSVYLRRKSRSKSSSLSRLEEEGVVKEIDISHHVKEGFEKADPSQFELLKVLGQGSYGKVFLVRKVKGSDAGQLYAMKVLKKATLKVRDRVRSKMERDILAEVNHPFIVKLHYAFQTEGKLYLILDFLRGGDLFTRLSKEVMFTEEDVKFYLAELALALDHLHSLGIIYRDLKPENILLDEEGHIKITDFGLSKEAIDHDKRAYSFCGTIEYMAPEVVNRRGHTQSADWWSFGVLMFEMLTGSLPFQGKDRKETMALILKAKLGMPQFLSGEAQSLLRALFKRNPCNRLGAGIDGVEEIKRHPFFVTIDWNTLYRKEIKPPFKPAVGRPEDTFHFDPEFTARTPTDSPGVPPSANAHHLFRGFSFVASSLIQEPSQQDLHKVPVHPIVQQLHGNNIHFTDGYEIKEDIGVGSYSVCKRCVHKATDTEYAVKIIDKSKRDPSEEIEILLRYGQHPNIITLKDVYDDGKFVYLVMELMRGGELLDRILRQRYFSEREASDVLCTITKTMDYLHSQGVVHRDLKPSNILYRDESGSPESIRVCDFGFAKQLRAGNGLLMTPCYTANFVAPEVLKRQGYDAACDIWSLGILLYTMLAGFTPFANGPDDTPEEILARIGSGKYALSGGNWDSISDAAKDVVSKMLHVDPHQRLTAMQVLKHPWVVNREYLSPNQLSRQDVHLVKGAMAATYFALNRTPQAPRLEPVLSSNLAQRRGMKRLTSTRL
T2 sequence (P07332 whole entry): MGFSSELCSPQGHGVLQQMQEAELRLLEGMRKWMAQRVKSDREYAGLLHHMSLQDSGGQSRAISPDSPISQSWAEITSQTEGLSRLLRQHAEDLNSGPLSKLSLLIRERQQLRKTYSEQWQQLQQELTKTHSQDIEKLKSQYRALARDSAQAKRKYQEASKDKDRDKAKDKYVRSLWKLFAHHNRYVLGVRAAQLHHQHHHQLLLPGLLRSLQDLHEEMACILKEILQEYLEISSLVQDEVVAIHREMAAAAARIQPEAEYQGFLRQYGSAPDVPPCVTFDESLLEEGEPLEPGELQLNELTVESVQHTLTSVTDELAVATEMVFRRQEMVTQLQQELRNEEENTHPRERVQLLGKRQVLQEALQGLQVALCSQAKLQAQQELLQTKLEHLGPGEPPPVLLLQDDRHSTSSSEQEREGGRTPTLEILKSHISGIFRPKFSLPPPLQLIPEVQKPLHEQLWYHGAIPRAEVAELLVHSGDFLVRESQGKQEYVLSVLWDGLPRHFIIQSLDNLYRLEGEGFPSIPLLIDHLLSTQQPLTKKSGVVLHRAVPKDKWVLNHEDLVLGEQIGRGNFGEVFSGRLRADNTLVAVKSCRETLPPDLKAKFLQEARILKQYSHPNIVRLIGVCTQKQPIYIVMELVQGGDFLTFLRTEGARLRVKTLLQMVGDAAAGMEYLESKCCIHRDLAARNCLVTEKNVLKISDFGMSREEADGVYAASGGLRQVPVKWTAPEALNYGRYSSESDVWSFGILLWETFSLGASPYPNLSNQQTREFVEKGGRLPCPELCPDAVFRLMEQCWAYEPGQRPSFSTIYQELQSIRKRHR
Sequence of Cdk6 (Q00534 whole entry): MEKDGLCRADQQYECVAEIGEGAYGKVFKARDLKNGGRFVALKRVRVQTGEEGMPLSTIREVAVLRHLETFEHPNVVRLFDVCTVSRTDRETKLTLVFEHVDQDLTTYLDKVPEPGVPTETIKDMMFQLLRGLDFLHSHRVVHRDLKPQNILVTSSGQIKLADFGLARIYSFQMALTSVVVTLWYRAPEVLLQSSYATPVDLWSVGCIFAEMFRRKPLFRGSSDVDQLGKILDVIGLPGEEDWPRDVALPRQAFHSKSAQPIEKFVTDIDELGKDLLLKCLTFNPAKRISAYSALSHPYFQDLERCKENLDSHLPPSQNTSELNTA
Sequence of Cdk6 (P30279 whole entry partner): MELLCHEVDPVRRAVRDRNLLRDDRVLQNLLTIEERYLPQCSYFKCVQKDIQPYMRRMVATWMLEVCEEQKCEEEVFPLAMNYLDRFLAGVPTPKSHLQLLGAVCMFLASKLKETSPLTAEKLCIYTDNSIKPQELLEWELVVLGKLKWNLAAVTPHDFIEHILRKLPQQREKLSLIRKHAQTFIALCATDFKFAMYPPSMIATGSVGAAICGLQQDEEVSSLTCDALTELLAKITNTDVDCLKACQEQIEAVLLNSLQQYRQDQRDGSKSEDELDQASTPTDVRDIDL

Compound	cell cycle arrest [1]	IC50 [2] [nM]	IC50 [3] [nM]	IC50 [4] [nM]	IC50 [5, 7] [nM]	IC50 ([6]; kinase panel, read-out: Fes IC50) [nM]	IC50 [6, 8] [nM]	average IC50 among non-CDK Ser/Thr kinases [4]	IC50 ([5]; kinase panel, 10 μM ATP, read-out: Ribosomal protein S6 kinase 3 (Rsk3) IC50) [nM]
COCCN1CCN(Cc2ccc(-c3n[nH]c4c3C(=O)c3c(NC(=O)NN5CCOCC5)cccc3-4)cc2)CC1 [Compound B16, N-[3-(4-{[4-(2-methoxyethyl)piperazinyl]methyl}phenyl)-4-oxoindeno[2,3-d]pyrazol-5-yl](morpholin-4-ylamino)carboxamide dihydrochloride]	predominantly G1 arrest	< 50	< 5	~50	< 500	< 100	< 100		
CC(C)N1CCN(C(=O)COc2ccc(-c3n[nH]c4c3C(=O)c3c(NC(=O)NN5CCOCC5)cccc3-4)cc2)CC1 [Compound A37]	predominantly G1 arrest	< 100	< 50	44	< 50		< 100	about 29 nM	10 to 100

Source: US20080146555A1, “Uses of Kinase Inhibitors and Compositions Thereof” (GPC Biotech, Inc, priority 2004, published 2008)
